Experimental data reported in US3963706A, “Sulphamoylphenyl-imidazolidinones” (Ed. Geistlich Sohne A.G. fur Chemische Industrie, priority 1972, dated 1976).

Experiments:
Petit Mal = test: Cardiazol shock test; format: in vivo; conditions: species not given
Description: (§1) In general, the majority of the available antiepileptic drugs are active against either Grand Mal or Petit Mal epilepsy but not against both forms.
(§2) As mentioned above, the compounds according to the present invention show interesting activity against both Grand Mal and Petit Mal forms of epilepsy. This activity is indicated respectively by the electro shock test and the Cardiazol shock test.

Grand Mal [1] = test: Electro shock test, rat; format: in vivo
Description: as §1, §2

Grand Mal [2] = test: Electro shock test, mouse; format: in vivo
Description: as §1, §2

[3] = format: in vivo; conditions: up to 500 mg/kg
Description: It will be noted that the ratio of ED50 /LD50 for the compounds according to the invention is particularly favourable.

SMILES | ED50 (Petit Mal) | ED50 (Grand Mal [1]) | ED50 (Grand Mal [2]) | sedative activity [3]
NS(=O)(=O)c1ccc(N2CN(c3ccccc3)CC2=O)c(F)c1 [Example 2, 1-Phenyl-3-(2-fluoro-4-sulphamoylphenyl)-imidazolidin-4-one] | 50 mg/kg | 10 mg/kg | 10 mg/kg | –
NS(=O)(=O)c1ccc(N2CN(c3ccccc3)CC2=O)c(Cl)c1 [Example 3, 1-Phenyl-3-(2-Chloro-4-sulphamoylphenyl)-imidazolidin-4-one] | 50 mg/kg | 5 mg/kg | 1 mg/kg | virtually no sedative activity
NS(=O)(=O)c1ccc(N2CN(c3ccccc3)CC2=O)c(Br)c1 [Example 5, 1-Phenyl-3-(2-bromo-4-sulphamoylphenyl)imidazolidin-4-one] | 50 mg/kg | 5 to 10 mg/kg | 5 mg/kg | –
NS(=O)(=O)c1ccc(N2C(=O)CN(c3ccccc3)C2=O)c(Cl)c1 [Example 8, 1-Phenyl-3-(2-chloro-4-sulphamoylphenyl)-hydantoin] | 100 mg/kg | 10 mg/kg | 5 mg/kg | –
CC1C(=O)N(c2ccc(S(N)(=O)=O)cc2Cl)CN1c1ccccc1 (stereo not drawn) [Example 18, 5-Methyl-1-phenyl-3-(2-chloro-4-sulphamoylphenyl)-imidazolidin-4-one] | 50 mg/kg | 10 mg/kg | – | –
NS(=O)(=O)c1ccc(N2CN(C3CCCCC3)CC2=O)c(Cl)c1 [Example 19, 1-Cyclohexyl-3-(2-chloro-4-sulphamoylphenyl)-imidazolidin-4-one] | 200 mg/kg | 25 mg/kg | 10 mg/kg | –
